According to publication PMC12339328, “Therapeutic effect and mechanism of gigantol on hyperuricemia” (Frontiers in Endocrinology, 2025):
Where “and” joins values, the source holds several entries; their conditions need not be identical. Equal entries are not always repeated.

Columns and labels:
GLUT9 [1] = test: GLUT9 protein expression in kidney of HUA mice (Western blot); format: in vivo; conditions: allopurinol 10 mg/kg, p > 0.05
NLRP3 = NLRP3 protein expression in HK-2 cells (Western blot); conditions: HK-2; 阳性 = allopurinol 100 µmol/L; replicates 1-3
OAT3 [2] = test: OAT3 protein expression in kidney of HUA mice (Western blot); conditions: allopurinol 10 mg/kg, p > 0.05
GLUT9 [3] = test: GLUT9 protein expression in HK-2 cells (Western blot); conditions: HK-2; 阳性 = allopurinol 100 µmol/L; replicates 1-3
OAT1 [4] = test: OAT1 protein expression in HK-2 cells (Western blot); conditions: HK-2; 阳性 = allopurinol 100 µmol/L; replicates 1-3
XOD [5] = conditions: HUA cell model; allopurinol 100 μmol/L; vs model; p < 0.001
OAT3 [6] = test: OAT3 protein expression in HK-2 cells (Western blot); conditions: HK-2; 阳性 = allopurinol 100 µmol/L; replicates 1-3
XOD [7] = system: XOD
[8] = Pharmacokinetics in rats (LC-MS/MS, WinNonlin); conditions: for MRT inf: MRT(0-∞); for Cmax: C max; for Tmax: T max
Procedure: Whole blood was taken into heparinized tubes at predefined time points (2, 5, 10, 20, and 30 min, and 1, 2, 4, 6, 8, and 12 h) after administration, and plasma was separated by centrifugation and stored at −20°C until testing. […] Whole blood was taken into heparinized tubes at predefined time points (2, 5, 10, 20, and 30 min, and 1, 2, 4, 6, 8, and 12 h) after administration, and plasma was separated by centrifugation and stored at −20°C until testing. […] Pharmacokinetic parameters were calculated by using the pharmacokinetics software WinNonlin 8.1.

OAT1 [9] = test: OAT1 protein expression in kidney of HUA mice (Western blot); conditions: allopurinol 10 mg/kg, p > 0.05
ASC = ASC protein expression in HK-2 cells (Western blot); conditions: HK-2; 阳性 = allopurinol 100 µmol/L; replicates 1-3
Caspase-1 = Caspase-1 protein expression in HK-2 cells (Western blot); conditions: HK-2; 阳性 = allopurinol 100 µmol/L; replicates 1-3
[10] = Sprague-Dawley, rat, plasma, iv, 5 mg/kg, rats, allopurinol intravenous 5 mg/kg, Average
[11] = Sprague-Dawley, rat, plasma, iv, 5 mg/kg, rats, allopurinol intravenous 5 mg/kg, individual rats
[12] = Sprague-Dawley, rat, plasma, po, 50 mg/kg, rats, allopurinol gavage 50 mg/kg, Average
[13] = Sprague-Dawley, rat, plasma, po, 50 mg/kg, rats, allopurinol gavage 50 mg/kg, individual rats
[14] = rats, allopurinol gavage 50 mg/kg, individual rats, 50 mg/kg
[15] = rats, allopurinol intravenous 5 mg/kg, individual rats, 5 mg/kg

Oc1ncnc2[nH]ncc12 [allopurinol]
GLUT9 protein expression in kidney (GLUT9 [1]): did not show significant effects | NLRP3 protein expression, band value (NLRP3): 163.939 and 177.621 and 186.105 | OAT3 protein expression in kidney (OAT3 [2]): did not show significant effects | GLUT (GLUT9) protein expression, band value (GLUT9 [3]): 146.392 and 138.006 and 144.372 | OAT1 protein expression, band value (OAT1 [4]): 174.983 and 217.222 and 169.712 | XOD activity in AML12 cells (XOD [5]): significantly downregulate | OAT3 protein expression, band value (OAT3 [6]): 160.43 and 183.946 | xod protein expression, band value (XOD [7]; AML12, 阳性 = allopurinol 100 µmol/L, replicates 1-3): 155.965 and 209.523 and 140.271 | XOD protein expression in AML12 cells (XOD [7]; HUA cell model, allopurinol 100 µmol/L, vs model group): significantly downregulate | AUC(0-t) ([8]; Sprague-Dawley, rat, plasma, iv, 5 mg/kg, AUC(0-t), rats, allopurinol intravenous 5 mg/kg, Average): 179 ng·h/mL | AUC(0-inf) [8, 10]: 209 ng·h/mL | AUC(0-inf) [8, 11]: 170 ng·h/mL | C0 ([8]; Sprague-Dawley, rat, plasma, iv, 5 mg/kg, C 0, rats, allopurinol intravenous 5 mg/kg, Average): ~225 ng/mL | C0 ([8]; Sprague-Dawley, rat, plasma, iv, 5 mg/kg, C 0, rats, allopurinol intravenous 5 mg/kg, individual rats): 169 ng/mL | MRT inf [8, 10]: 0.79 h | MRT inf [8, 11]: 0.73 h | bioavailability ([8]; Sprague-Dawley, rat, plasma, oral, F (absolute bioavailability), rats, allopurinol gavage 50 mg/kg vs intravenous 5 mg/kg): ~314% | AUC(0-t) ([8]; Sprague-Dawley, rat, plasma, po, 50 mg/kg, AUC(0-t), rats, allopurinol gavage 50 mg/kg, Average): 6470 ng·h/mL | AUC(0-t) ([8]; Sprague-Dawley, rat, plasma, po, 50 mg/kg, AUC(0-t), rats, allopurinol gavage 50 mg/kg, individual rats): 6290 ng·h/mL | AUC(0-inf) [8, 12]: ~6580 ng·h/mL | AUC(0-inf) [8, 13]: 6430 ng·h/mL | Cmax [8, 12]: ~1350 ng/mL | Cmax [8, 13]: 1310 ng/mL | MRT inf [8, 12]: 2.5 h | MRT inf [8, 13]: 2.06 h | Tmax [8, 12]: 1 to 2 h | Tmax [8, 13]: 2 h | V/F ([8]; rats, allopurinol gavage 50 mg/kg, Average): 14.28 L/kg | T max ([8]; rats, allopurinol gavage 50 mg/kg, Average, 50 mg/kg): 1.33 h | AUC(0-t) [8, 14]: 6,239.00 h·µg/L and 6,870.26 h·µg/L | AUC(0-∞) [8, 14]: 6,374.71 h·µg/L and 6,922.57 h·µg/L | C max [8, 14]: 1,440.00 µg/L and 1,310.00 µg/L | MRT(0-∞) [8, 14]: 2.68 h and 2.75 h | V/F [8, 14]: 15.75 L/kg and 15.77 L/kg and 11.31 L/kg | V ([8]; rats, allopurinol intravenous 5 mg/kg, Average): 19.62 L/kg | AUC(0-t) [8, 15]: 186.21 ng·h/mL and 225.15 ng·h/mL | AUC(0-∞) [8, 15]: 207.21 µg·h/L and 250.23 µg·h/L | C0 [8, 15]: 223.22 ng/mL and 281.70 ng/mL | MRT(0-∞) [8, 15]: 0.81 h and 0.83 h | V [8, 15]: 20.68 L/kg and 20.60 L/kg and 17.58 L/kg | OAT1 protein expression in kidney (OAT1 [9]): did not show significant effects | asc protein expression, band value (ASC): 163.648 and 185.065 and 186.261 | CASPASE protein expression, band value (Caspase-1): 147.442 and 190.729 and 189.372
